“And” between values parts separate entries of the source, which are not always exact repeats. Equal entries are not always repeated. Toxic doses and inconclusive results are not listed.

For the assay, the system named is CD2F1 mice, intracerebral L1210 leukemia, survival T/C. Put plainly: NCI In Vivo Anticancer Drug Screen. Data for tumor model L1210 Leukemia (intracerebral) in CD2F1 (CDF1) mice. The following applies: higher = longer survival. As to the method: The antitumor activity of compounds was measured in mice bearing transplantable tumors. Survival or tumor size were measured and the results are expressed as the measurement made in the treated group (T) divided by the measurement made in the vehicle treated control group (C). The tumor model used in this assay is L1210 Leukemia (intracerebral) in CD2F1 (CDF1) mice

Setting [1] is: endpoint: mean survival time, dose: 20.0 mg/kg/injection, schedule: Q01DX007 (ip), vehicle: DMSO.
Where [2] appears, read: endpoint: mean survival time, dose: 25.0 mg/kg/injection, schedule: Q01DX009 (ip), vehicle: saline.
Where [3] appears, read: endpoint: mean survival time, dose: 40.0 mg/kg/injection, schedule: Q01DX007 (ip), vehicle: DMSO.
Where [4] appears, read: endpoint: mean survival time, dose: 50.0 mg/kg/injection, schedule: Q01DX009 (ip), vehicle: saline.
[5] abbreviates: endpoint: mean survival time, dose: 80.0 mg/kg/injection, schedule: Q01DX007 (ip), vehicle: DMSO.
Setting [6] is: endpoint: median survival time, dose: 16.0 mg/kg/injection, schedule: Q01DX005 (ip), vehicle: saline with Tween-80.
[7] abbreviates: endpoint: median survival time, dose: 32.0 mg/kg/injection, schedule: Q01DX005 (ip), vehicle: saline with Tween-80.
[8] abbreviates: endpoint: median survival time, dose: 64.0 mg/kg/injection, schedule: Q01DX005 (ip), vehicle: saline with Tween-80.
Setting [9] is: endpoint: median survival time, dose: 128.0 mg/kg/injection, schedule: Q01DX005 (ip), vehicle: saline with Tween-80.
[10] abbreviates: endpoint: median survival time, dose: 0.75 mg/kg/injection, schedule: Q01DX009 (ip), vehicle: saline.

With `O=NN(CCCl)C(=O)NC1CCC(=O)NC1=O` (stereo not given), the T/C runs as follows: (endpoint: median survival time, dose: 2.0 mg/kg/injection, schedule: Q01DX001 (ip), vehicle: saline + alcohol) 112 % of control; (endpoint: median survival time, dose: 8.0 mg/kg/injection, schedule: Q01DX001 (ip), vehicle: DMSO) 602 % of control; (endpoint: median survival time, dose: 8.0 mg/kg/injection, schedule: Q01DX001 (ip), vehicle: saline + alcohol) 192 % of control; (endpoint: median survival time, dose: 8.0 mg/kg/injection, schedule: Q01DX001 (oral), vehicle: saline + alcohol) 168 % of control; (endpoint: median survival time, dose: 16.0 mg/kg/injection, schedule: Q01DX001 (ip), vehicle: DMSO) 215 % of control; (endpoint: median survival time, dose: 16.0 mg/kg/injection, schedule: Q01DX001 (ip), vehicle: saline + alcohol) 224 % of control. The T/C by setting is: (endpoint: median survival time, dose: 16.0 mg/kg/injection, schedule: Q01DX001 (oral), vehicle: saline + alcohol) 236 % of control; (endpoint: median survival time, dose: 32.0 mg/kg/injection, schedule: Q01DX001 (ip), vehicle: DMSO) 95 % of control; (endpoint: median survival time, dose: 32.0 mg/kg/injection, schedule: Q01DX001 (ip), vehicle: saline + alcohol) 389 % of control; (endpoint: median survival time, dose: 32.0 mg/kg/injection, schedule: Q01DX001 (oral), vehicle: saline + alcohol) 164 % of control; (endpoint: median survival time, dose: 64.0 mg/kg/injection, schedule: Q01DX001 (oral), vehicle: saline + alcohol) 97 % of control.
With `CN(C)/N=N/c1nc[nH]c1C(N)=O`, the T/C under setting [1] was 100 % of control; the T/C (endpoint: mean survival time, dose: 20.0 mg/kg/injection, schedule: Q01DX007 (ip), vehicle: other) was 106 % of control; the T/C under setting [2] was 113 % of control; the T/C under setting [3] was 103 % of control; the T/C (endpoint: mean survival time, dose: 40.0 mg/kg/injection, schedule: Q01DX007 (ip), vehicle: other) is 106 % of control; the T/C under setting [4] was 111 % of control. Besides, the T/C under setting [5] was 116 % of control; the T/C (endpoint: mean survival time, dose: 80.0 mg/kg/injection, schedule: Q01DX007 (ip), vehicle: other) was 107 % of control; the T/C (endpoint: mean survival time, dose: 100.0 mg/kg/injection, schedule: Q01DX009 (ip), vehicle: saline) was 111 % of control; the T/C (endpoint: mean survival time, dose: 160.0 mg/kg/injection, schedule: Q01DX007 (ip), vehicle: DMSO) was 121 % of control; the T/C (endpoint: mean survival time, dose: 160.0 mg/kg/injection, schedule: Q01DX007 (ip), vehicle: other) is 121 % of control; the T/C (endpoint: mean survival time, dose: 320.0 mg/kg/injection, schedule: Q01DX007 (ip), vehicle: DMSO) is 103 % of control. The T/C (endpoint: mean survival time, dose: 320.0 mg/kg/injection, schedule: Q01DX007 (ip), vehicle: other) was 112 % of control; the T/C under setting [6] was 104 % of control; the T/C under setting [7] was 120 % of control; the T/C under setting [8] was 110 % of control; the T/C under setting [9] was 113 % of control.
Turning to `COc1ccc2cc1Oc1ccc(cc1)C[C@H]1c3cc(c(OC)cc3CCN1C)Oc1c(OC)c(OC)cc3c1[C@H](C2)N(C)CC3`, the T/C by setting is: (endpoint: median survival time, dose: 50.0 mg/kg/injection, schedule: Q01DX005 (ip), vehicle: Klucel (hydroxypropylcellulose) (HPC)) 90 % of control and 91 % of control; (endpoint: median survival time, dose: 100.0 mg/kg/injection, schedule: Q01DX005 (ip), vehicle: Klucel (hydroxypropylcellulose) (HPC)) 95 % of control and 98 % of control; (endpoint: median survival time, dose: 200.0 mg/kg/injection, schedule: Q01DX005 (ip), vehicle: Klucel (hydroxypropylcellulose) (HPC)) 95 % of control and 104 % of control; (endpoint: median survival time, dose: 400.0 mg/kg/injection, schedule: Q01DX005 (ip), vehicle: Klucel (hydroxypropylcellulose) (HPC)) 101 % of control.
On to `CC(C)=CCC1=C(O)c2ccccc2C(=O)C1=O`, for which the T/C reads like this: (endpoint: median survival time, dose: 32.0 mg/kg/injection, schedule: Q01DX005 (ip), vehicle: Klucel (hydroxypropylcellulose) (HPC)) 96 % of control and 100 % of control; (endpoint: median survival time, dose: 64.0 mg/kg/injection, schedule: Q01DX005 (ip), vehicle: Klucel (hydroxypropylcellulose) (HPC)) 97 % of control and 102 % of control; (endpoint: median survival time, dose: 128.0 mg/kg/injection, schedule: Q01DX005 (ip), vehicle: Klucel (hydroxypropylcellulose) (HPC)) 92 % of control and 93 % of control; (endpoint: median survival time, dose: 256.0 mg/kg/injection, schedule: Q01DX005 (ip), vehicle: Klucel (hydroxypropylcellulose) (HPC)) 96 % of control and 105 % of control.
Consider `CN(C)N=Nc1ccc(C(=O)O)cc1`, for which the T/C reads like this: (endpoint: mean survival time, dose: 10.0 mg/kg/injection, schedule: Q01DX007 (ip), vehicle: DMSO) 91 % of control; under setting [1], 96 % of control; under setting [2], 104 % of control; under setting [3], 108 % of control; under setting [4], 119 % of control; under setting [5], 122 % of control. For the same molecule, where the note is “endpoint: mean survival time, dose: 200.0 mg/kg/injection, schedule: Q01DX009 (ip), vehicle: saline”, the T/C is 113 % of control.
With `CN(C)c1nc(N(C)C)nc(N(C)C)n1`, the T/C is 121 % of control (endpoint: median survival time, dose: 100.0 mg/kg/injection, schedule: Q01DX005 (ip), vehicle: saline with Tween-80); 102 % of control (endpoint: median survival time, dose: 100.0 mg/kg/injection, schedule: Q01DX005 (ip), vehicle: suspension in saline); 101 % of control (endpoint: median survival time, dose: 200.0 mg/kg/injection, schedule: Q01DX005 (ip), vehicle: saline with Tween-80); 101 % of control (endpoint: median survival time, dose: 200.0 mg/kg/injection, schedule: Q01DX005 (ip), vehicle: suspension in saline); 100 % of control (endpoint: median survival time, dose: 400.0 mg/kg/injection, schedule: Q01DX005 (ip), vehicle: suspension in saline); 118 % of control (endpoint: median survival time, dose: 800.0 mg/kg/injection, schedule: Q01DX005 (ip), vehicle: suspension in saline).
As for `C[C@]12CCC(=O)C=C1CC[C@@H]1[C@@H]2[C@@H](O)C[C@@]2(C)[C@H]1CC[C@]2(O)C(=O)COP(=O)(O)OCC1OC(n2ccc(N)nc2=O)C(O)C1O` (stereo not given in full), the T/C (endpoint: median survival time, dose: 18.75 mg/kg/injection, schedule: Q01DX005 (ip), vehicle: other) is 116 % of control; the T/C (endpoint: median survival time, dose: 150.0 mg/kg/injection, schedule: Q01DX005 (ip), vehicle: other) was 160 % of control; the T/C (endpoint: median survival time, dose: 300.0 mg/kg/injection, schedule: Q01DX005 (ip), vehicle: other) was 169 % of control.
Take `O=P1(N(CCCl)CCCl)NC(OO)CCO1` (stereo not given): the T/C runs as follows: (endpoint: median survival time, dose: 40.0 mg/kg/injection, schedule: Q01DX001 (ip), vehicle: saline) 100 % of control; (endpoint: median survival time, dose: 80.0 mg/kg/injection, schedule: Q01DX001 (ip), vehicle: saline) 102 % of control; (endpoint: median survival time, dose: 160.0 mg/kg/injection, schedule: Q01DX001 (ip), vehicle: saline) 103 % of control.
`COC(=O)C(Cc1ccc(N(CCCl)CCCl)cc1)N=NNc1nc[nH]c1C(N)=O` (stereo not given): the T/C is 95 % of control (endpoint: median survival time, dose: 8.0 mg/kg/injection, schedule: Q01DX005 (ip), vehicle: saline with Tween-80); 115 % of control under setting [6]; 95 % of control under setting [7].
With `O=C1C(N2CC2)=C(N2CCCC(O)C2)C(=O)C(N2CC2)=C1N1CCCC(O)C1` (stereo not given), the T/C runs as follows: (endpoint: mean survival time, dose: 2.0 mg/kg/injection, schedule: Q04DX003 (ip), vehicle: saline) 103 % of control and 110 % of control; (endpoint: mean survival time, dose: 4.0 mg/kg/injection, schedule: Q04DX003 (ip), vehicle: saline) 121 % of control and 110 % of control; (endpoint: mean survival time, dose: 6.0 mg/kg/injection, schedule: Q04DX003 (ip), vehicle: saline) 114 % of control; (endpoint: mean survival time, dose: 8.0 mg/kg/injection, schedule: Q04DX003 (ip), vehicle: saline) 114 % of control.
`CN(CCO)/N=N/c1nc[nH]c1C(N)=O`: the T/C is, setting by setting: under setting [7], 107 % of control; under setting [8], 106 % of control; under setting [9], 109 % of control; (endpoint: median survival time, dose: 256.0 mg/kg/injection, schedule: Q01DX005 (ip), vehicle: saline with Tween-80) 119 % of control.
On to `COS(C)(=O)=O`, for which the T/C runs as follows: (endpoint: median survival time, dose: 16.0 mg/kg/injection, schedule: Q01DX005 (ip), vehicle: saline) 107 % of control and 108 % of control; (endpoint: median survival time, dose: 32.0 mg/kg/injection, schedule: Q01DX005 (ip), vehicle: saline) 120 % of control; (endpoint: median survival time, dose: 64.0 mg/kg/injection, schedule: Q01DX005 (ip), vehicle: saline) 113 % of control; (endpoint: median survival time, dose: 128.0 mg/kg/injection, schedule: Q01DX005 (ip), vehicle: saline) 107 % of control and 111 % of control.
Turning to `COC(COC(=O)N1CCN(C=O)CC1)C1=C(N2CC2)C(=O)C(C)=C(N2CC2)C1=O` (stereo not given), the T/C under setting [10] is 115 % of control; the T/C (endpoint: median survival time, dose: 1.5 mg/kg/injection, schedule: Q01DX009 (ip), vehicle: saline) was 105 % of control; the T/C (endpoint: median survival time, dose: 6.0 mg/kg/injection, schedule: Q01DX009 (ip), vehicle: saline) is 160 % of control.
With `COC(=O)NC1=C(N2CC2)C(=O)C(NC(=O)OC)=C(N2CC2)C1=O`, the T/C (endpoint: median survival time, dose: 0.37 mg/kg/injection, schedule: Q01DX009 (ip), vehicle: saline) is 112 % of control and 117 % of control; the T/C under setting [10] is 120 % of control and 122 % of control.
